Patent US9981942B2, “Piperidine derivatives having multimodal activity against pain” (LABORATORIOS DEL DR. ESTEVE S.A., priority 2013, dated 2018)

Target: σ1 receptor and the μ-opiod receptor
Assay: μ and σ1 dual binding: combined class from the Ki of both radioligand assays
Parameters: species or system human; key to μ and σ1 dual binding: +: Both Ki-μ and Ki-σ1>=500 nM; ++: One Ki<500 nM while the other Ki is >=500 nM; +++: Both Ki-μ and Ki-σ1<500 nM; ++++: Both Ki-μ and Ki-σ1<100 nM
Settings: transfected HEK-293 membranes (σ1), transfected CHO-K1 cell membranes (μ); for μ and σ1 dual binding: combined class for Ki-μ and Ki-σ1
Outline: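 Classes combine both Ki values, split at 500 nM and 100 nM. Human μ-opioid binding used 1 nM [3H]-DAMGO on CHO-K1 membranes (27 °C, 60 min, pH 7.4, naloxone 10 μM for NSB); human σ1 used 5 nM [3H](+)-pentazocine on HEK-293 membranes (37 °C, 120 min, pH 8, haloperidol 10 μM for NSB).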

SMILES | Ki range for both μ and σ1 (dual-binding class) [nM] | μ and σ1 dual binding
CS(=O)(=O)Nc1cccc(C2CCN(Cc3cn(-c4ccccc4F)nn3)CC2)c1 [Example 27, N-(3-(1-((1-(2-fluorophenyl)-1H-1,2,3-triazol-4-yl)methyl)piperidin-4-yl)phenyl)methanesulfonamide] | < 100 | 
CS(=O)(=O)Nc1cncc(C2CCN(Cc3cn(-c4ccccc4)nn3)CC2)c1 [Example 194, N-(5-(1-((1-phenyl-1H-1,2,3-triazol-4-yl)methyl)piperidin-4-yl)pyridin-3-yl)methanesulfonamide] | ≥ 500 | 
CC(C)S(=O)(=O)Nc1cccc(C2CCN(Cc3cn(-c4ccccc4)nn3)CC2)n1 [Example 207, N-(6-(1-((1-phenyl-1H-1,2,3-triazol-4-yl)methyl)piperidin-4-yl)pyridin-2-yl)propane-2-sulfonamide] | < 500 | 
c1ccc(Cn2cc(CN3CCC(c4cccc(Nc5ccccn5)c4)CC3)nn2)nc1 [Example 231, N-(3-(1-((1-(pyridin-2-ylmethyl)-1H-1,2,3-triazol-4-yl)methyl)piperidin-4-yl)phenyl)pyridin-2-amine] |  | ++
CC(C)S(=O)(=O)Nc1cccc([C@@H]2CCN(Cc3cn(Cc4ccccn4)nn3)C[C@@H]2O)c1 [Example 125, N-(3-((3R,4S)-3-hydroxy-1-((1-(pyridin-2-ylmethyl)-1H-1,2,3-triazol-4-yl)methyl)piperidin-4-yl)phenyl)propane-2-sulfonamide] |  | ++
CC(=O)Nc1nc2ccc(C3CCN(Cc4cn(-c5ccccc5)nn4)CC3)cc2s1 [Example 74, N-(6-(1-((1-phenyl-1H-1-1,2,3-triazol-4-yl)methyl)piperidin-4-yl)benzo[d]thiazol-2-yl)acetamide] |  | ++
CC(C)S(=O)(=O)Nc1cccc(C2CCN(Cc3cn(Cc4ccccc4)nn3)CC2)c1 [Example 79, N-(3-(1-((1-benzyl-1H-1,2,3-triazol-4-yl)methyl)piperidin-4-yl)phenyl)propane-2-sulfonamide] | < 500 | 
CCNC(=O)Nc1cccc(C2CCN(Cc3cn(-c4ccccc4)nn3)CC2)c1 [Example 56, 1-ethyl-3-(3-(1-((1-phenyl-1H-1,2,3-triazol-4-yl)methyl)piperidin-4-yl)phenyl)urea] | < 500 | 
Oc1ccc(C2CCN(Cc3cn(-c4ccccc4)nn3)CC2)cc1 [Example 221, 4-(1-((1-phenyl-1H-1,2,3-triazol-4-yl)methyl)piperidin-4-yl)phenol] | < 500 | 
CS(=O)(=O)Nc1cccc(C2CCN(Cc3ncn(-c4ccccc4)n3)CC2)c1 [Example 182, N-(3-(1-((1-phenyl-1H-1,2,4-triazol-3-yl)methyl)piperidin-4-yl)phenyl)methanesulfonamide] |  | ++
CS(=O)(=O)Nc1cccc(C2CCN(Cc3cncn3Cc3ccccc3)CC2)c1 [Example 185, N-(3-(1-((1-benzyl-1H-imidazol-5-yl)methyl)piperidin-4-yl)phenyl)methanesulfonamide] |  | ++
Oc1cccc(C2CCN(Cc3cnn(Cc4ccc(F)cn4)c3)CC2)c1 [Example 173, 3-(1-((1-((5-fluoropyridin-2-yl)methyl)-1H-pyrazol-4-yl)methyl)piperidin-4-yl)phenol] | < 500 | 
CS(=O)(=O)Nc1cccc(C2CCN(Cc3cn(-c4ccc(F)cc4)nn3)CC2)c1 [Example 16, N-(3-(1-((1-(4-fluorophenyl)-1H-1,2,3-triazol-4-yl)methyl)piperidin-4-yl)phenyl)methanesulfonamide] | < 500 | 
Oc1cccc(C2CCN(Cc3cn(Cc4cccc(F)n4)nn3)CC2)c1 [Example 132, 3-(1-((1-((6-fluoropyridin-2-yl)methyl)-1H-1,2,3-triazol-4-yl)methyl)piperidin-4-yl)phenol] | < 500 | 
Oc1cccc(C2CCN(Cc3cn(Cc4ccc(F)cn4)nn3)CC2)c1 [Example 133, 3-(1-((1-((5-fluoropyridin-2-yl)methyl)-1H-1,2,3-triazol-4-yl)methyl)piperidin-4-yl)phenol] | < 500 | 
c1ccc(-n2cc(CN3CCC(c4cccc(-c5ncc[nH]5)c4)CC3)nn2)cc1 [Example 30, 4-(3-(1H-imidazol-2-yl)phenyl)-1-((1-phenyl-1H-1,2,3-triazol-4-yl)methyl)piperidine] | < 500 | 
CC(c1ccccc1)n1cc(CN2CCC(c3cccc(NS(C)(=O)=O)c3)CC2)nn1 (stereo not drawn) [Example 76, N-(3-(1-((1-(1-phenylethyl)-1H-1,2,3-triazol-4-yl)methyl)piperidin-4-yl)phenyl)methanesulfonamide] | < 500 | 
Oc1cccc(C2CCN(Cc3cn(Cc4ncccc4Cl)nn3)CC2)c1 [Example 144, 3-(1-((1-((3-chloropyridin-2-yl)methyl)-1H-1,2,3-triazol-4-yl)methyl)piperidin-4-yl)phenol] | < 500 | 

SMILES | Ki range for both μ and σ1 (dual-binding class) [nM] | μ and σ1 dual binding
COc1ccc(-n2cc(CN3CCC(c4cccc(O)c4)CC3)nn2)nc1 [Example 217, 3-(1-((1-(5-methoxypyridin-2-yl)-1H-1,2,3-triazol-4-yl)methyl)piperidin-4-yl)phenol] | < 500 | 
NS(=O)(=O)c1cccc(C2CCN(Cc3cn(-c4ccccc4)nn3)CC2)c1 [Example 140, 3-(1-((1-phenyl-1H-1,2,3-triazol-4-yl)methyl)piperidin-4-yl)benzenesulfonamide] | ≥ 500 | 
Oc1ccccc1C1CCN(Cc2cn(-c3ccccc3)nn2)CC1 [Example 222, 2-(1-((1-phenyl-1H-1,2,3-triazol-4-yl)methyl)piperidin-4-yl)phenol] | < 500 | 
Cc1ccc(F)c(-n2cc(CN3CCC(c4cccc(O)c4)CC3)nn2)c1 [Example 224, 3-(1-((1-(2-fluoro-5-methylphenyl)-1H-1,2,3-triazol-4-yl)methyl)piperidin-4-yl)phenol] | < 100 | 
CS(=O)(=O)Nc1cccc(C2CCN(Cc3cn(-c4cccc(F)c4)nn3)CC2)c1 [Example 28, N-(3-(1-((1-(3-fluorophenyl)-1H-1,2,3-triazol-4-yl)methyl)piperidin-4-yl)phenyl)methanesulfonamide] | < 100 | 
Oc1cccc(C2CCN(Cc3cn(Cc4ccc(C(F)(F)F)cn4)nn3)CC2)c1 [Example 152] | < 100 | 
Oc1cccc(C2CCN(Cc3cn(-c4ncccc4O)nn3)CC2)c1 [Example 216, 2-(4-((4-(3-hydroxyphenyl)piperidin-1-yl)methyl)-1H-1,2,3-triazol-1-yl)pyridin-3-ol] |  | ++
Oc1cccc(C2CCN(Cc3cn(-c4ccc(F)cn4)nn3)CC2)c1 [Example 143, 3-(1-((1-(5-fluoropyridin-2-yl)-1H-1,2,3-triazol-4-yl)methyl)piperidin-4-yl)phenol] | < 100 | 
Oc1cccc(C2CCN(Cc3cn(Cc4ccccn4)cn3)CC2)c1 [Example 188, 3-(1-((1-(pyridin-2-ylmethyl)-1H-imidazol-4-yl)methyl)piperidin-4-yl)phenol] |  | ++
Oc1cccc(C2CCN(Cc3cn([C@@H]4Cc5ccccc5[C@H]4F)nn3)CC2)c1 [Example 72, 3-(1-((1-((1R,2R)-1-fluoro-2,3-dihydro-1H-inden-2-yl)-1H-1,2,3-triazol-4-yl)methyl)piperidin-4-yl)phenol] | < 100 | 
Cc1nnc(-c2cccc(C3CCN(Cc4cn(-c5ccccc5)nn4)CC3)c2)o1 [Example 42, 2-methyl-5-(3-(1-((1-phenyl-1H-1,2,3-triazol-4-yl)methyl)piperidin-4-yl)phenyl)-1,3,4-oxadiazole] | < 500 | 
Oc1cccc(C2CCN(Cc3cn(-c4cc(C(F)(F)F)ccn4)nn3)CC2)c1 [Example 157, 3-(1-((1-(4-(trifluoromethyl)pyridin-2-yl)-1H-1,2,3-triazol-4-yl)methyl)piperidin-4-yl)phenol] | < 500 | 
Oc1cccc(C2CCN(Cc3cn(-c4ccncc4)nn3)CC2)c1 [Example 14, 3-(1-((1-(pyridin-4-yl)-1H-1,2,3-triazol-4-yl)methyl)piperidin-4-yl)phenol] | < 500 | 
CS(=O)(=O)Nc1cccc(C2CCN(Cc3cc(-c4ccccc4)no3)CC2)n1 [Example 200, N-(6-(1-((3-phenylisoxazol-5-yl)methyl)piperidin-4-yl)pyridin-2-yl)methanesulfonamide] | < 500 | 
CC(=O)Nc1nc2c(C3CCN(Cc4cn(-c5ccccc5)nn4)CC3)cccc2s1 [Example 49, N-(4-(1-((1-Phenyl-1H-1,2,3-triazol-4-yl)methyl)piperidin-4-yl)benzo[d]thiazol-2-yl)acetamide] | < 100 | 
Oc1cccc(C2CCN(Cc3cn([C@@H]4c5ccccc5C[C@H]4O)nn3)CC2)c1 [Example 78, (1R,2R)-1-(4-((4-(3-hydroxyphenyl)piperidin-1-yl)methyl)-1H-1,2,3-triazol-1-yl)-2,3-dihydro-1H-inden-2-ol] | < 500 | 
CCCn1cc(CN2CCC(c3cccc(O)c3)CC2)nn1 [Example 3, 3-(1-((1-propyl-1H-1,2,3-triazol-4-yl)methyl)piperidin-4-yl)phenol] | < 500 | 
c1ccc(Cn2cc(CN3CCC(c4cccc(-c5ncc[nH]5)c4)CC3)nn2)nc1 [Example 139, 2-((4-((4-(3-(1H-imidazol-2-yl)phenyl)piperidin-1-yl)methyl)-1H-1,2,3-triazol-1-yl)methyl)pyridine] |  | ++
